This is an account of results in publication PMC5706701, “Development of a homogenous high-throughput assay for inositol hexakisphosphate kinase 1 activity” (PLoS ONE, 2017).

For the assay, the target named is T1, Human IP6K1 (Homo sapiens, UniProt Q92551).
T1 construct: GST (N, cleaved yes); made in house; host or cells: C43 E. coli, pGEX-6P-2
Description: IP6K1 high-throughput screen of the Sigma LOPAC (ADP-Glo Max, single point).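 Also: final compound concentration 10µM in 5% DMSO.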 It counts as biochemical. Background: In ADP-Glo the light output rises with the ADP produced.

The mark [1] stands for this setting: Sigma LOPAC single-point screen, ADP-Glo Max raw signal per well.
Setting [2] is: Sigma LOPAC single-point screen, Z-score from plate average and StDev.
[3] abbreviates: LOPAC single-point screen, ADP-Glo Max raw signal per well.
Setting [4] is: LOPAC single-point screen, Z-score from raw signal with plate average and StDev.
Where [5] appears, read: LOPAC single-point screen, ADP-Glo Max luminescence raw signal per well.
Where [6] appears, read: LOPAC single-point screen, Z-score relative to plate average and StDev.
[7] abbreviates: LOPAC single-point screen, Z-score from plate average and StDev.
The mark [8] stands for this setting: LOPAC single-point screen, Z-score against plate average and StDev.

Where a name gives a salt, the structure may show the parent alone. Read-outs that look alike come from different tables or passages of the source.

T1 sequence (Q92551 whole entry): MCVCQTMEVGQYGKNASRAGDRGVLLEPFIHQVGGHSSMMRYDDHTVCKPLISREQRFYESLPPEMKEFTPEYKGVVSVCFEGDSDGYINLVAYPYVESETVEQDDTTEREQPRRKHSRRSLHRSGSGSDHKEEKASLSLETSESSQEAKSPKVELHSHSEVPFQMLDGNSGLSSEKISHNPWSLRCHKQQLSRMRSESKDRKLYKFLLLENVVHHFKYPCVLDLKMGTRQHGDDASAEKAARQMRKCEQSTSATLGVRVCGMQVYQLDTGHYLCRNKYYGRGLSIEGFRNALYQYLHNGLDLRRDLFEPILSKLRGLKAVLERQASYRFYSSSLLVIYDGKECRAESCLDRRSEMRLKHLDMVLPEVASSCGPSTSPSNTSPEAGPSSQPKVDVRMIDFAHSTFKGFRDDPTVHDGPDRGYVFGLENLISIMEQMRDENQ

As to `O=Nc1ccc2oc(=O)ccc2c1` [6-Nitroso-1,2-benzopyrone], the “Raw Signal” value under setting [1] was 57563. The same compound displayed a Z-score under setting [2] of 0.5326. In the case of `N[C@H](CO)C(=O)O` [D-Serine], under setting [3], the “Raw Signal” value was 53973. Also, the Z-score under setting [4] was -0.3984. For the compound `Cl.NCC(O)c1ccc(O)cc1` (racemic) [(±)-Octopamine hydrochloride], the “Raw Signal” value under setting [3] is 52629. This compound also displayed a Z-score under setting [4] of -0.2965.

Consider `CCCn1cnc2c1c(=O)n(CCCCC(C)=O)c(=O)n2C` [Propentofylline], for which the “Raw Signal” value under setting [3] is given as 54119. The compound further came in with a Z-score under setting [4] of -0.3701. For the compound `C[C@H](Cc1ccc(OCC(=O)[O-])cc1)NC[C@H](O)c1cccc(Cl)c1.[Na+]` [BRL 37344 sodium], the “Raw Signal” value under setting [5] is recorded as 53982. The compound further displayed a Z-score under setting [6] of -0.6924.

Regarding `CC(=O)NNC(=O)N1Cc2ccccc2Oc2ccc(Cl)cc21` [SC 19220], the “Raw Signal” value under setting [1] is recorded as 57783. For the same compound, the Z-score under setting [2] came out at 0.3418. For the compound `c1ccc(C2CN3CCSC3=N2)cc1` (stereo not drawn) [Tetramisole hydrochloride], under setting [5], the “Raw Signal” value is recorded as 64300. Under setting [7], this compound had a Z-score of 1.608. For the compound `O=C(OCCN1CCOCC1)C1(c2ccccc2)CCCCC1` [PRE-084], the “Raw Signal” value under setting [3] is reported as 55518. Under setting [8], this compound yielded a Z-score of 0.1889. For `CC(CN(C)C)CN1c2ccccc2CCc2ccccc21` (stereo not drawn) [Trimipramine maleate], the “Raw Signal” value under setting [5] was found to be 53117. The same compound yielded a Z-score under setting [6] of -0.5647.

As for `CCCCCCCCCCCCCCCCOCC(COCC(F)(F)F)OP(=O)(O)OC` (stereo not drawn) [MJ33], the “Raw Signal” value under setting [1] was 57341. Under setting [2], this compound displayed a Z-score of 0.4953.

As to `N=C(N)NC(=N)Nc1ccccc1` [1-Phenylbiguanide], the “Raw Signal” value under setting [5] stood at 52325. The compound also yielded a Z-score under setting [6] of -0.7186. With `O=C(O)CN(CCN(CC(=O)O)CC(=O)O)CCN(CC(=O)O)CC(=O)O` [Diethylenetriaminepentaacetic acid], under setting [3], the “Raw Signal” value came to 53021. Also, the Z-score under setting [4] is listed as -0.4358. In the case of `COc1ccccc1N1CCN(CCN(C(=O)c2ccc(I)cc2)c2ccccn2)CC1.Cl` [p-MPPI hydrochloride], under setting [1], the “Raw Signal” value was 60360. The compound also showed a Z-score under setting [2] of 1.003. On to `COc1ccccc1N1CCN(CCN(C(=O)c2ccc(F)cc2)c2ccccn2)CC1.Cl.Cl` [p-MPPF dihydrochloride], for which the “Raw Signal” value under setting [3] came to 52235. In addition, the Z-score under setting [4] was -0.3627. On to `C#CCN(C)Cc1ccccc1` [Pargyline hydrochloride], for which the “Raw Signal” value under setting [3] worked out at 54085. For the same compound, under setting [4], the Z-score is -0.3767.

Consider `COC(=O)C(N)Cc1ccc(Cl)cc1.Cl` (racemic), for which the “Raw Signal” value under setting [5] is recorded as 67025. Under setting [7], the Z-score was 1.605. Turning to `Oc1cc2c(cc1O)[C@H]1c3ccccc3CN[C@@H]1CC2` (racemic) [Dihydrexidine hydrochloride], under setting [3], the “Raw Signal” value worked out at 53851. The Z-score under setting [4] is on record as -0.2673. Turning to `CCN(CC)CCOC(=O)c1ccc(N)cc1` [Procaine hydrochloride], the “Raw Signal” value under setting [1] was 61379. The compound also returned a Z-score under setting [2] of 1.04.

On to `COc1c2c(nc3ccccc13)OC(C(C)(O)CO)C2` (stereo not drawn) [Dubinidine], for which the “Raw Signal” value under setting [5] was determined as 52835. Under setting [6], this compound gave a Z-score of -0.4736. For the compound `O=C(O)CCC/C=C\C[C@@H]1[C@@H](/C=C/[C@H](O)C2Cc3ccccc3C2)[C@@H](F)C[C@@H]1O` [AL-8810], under setting [5], the “Raw Signal” value turned out to be 53863. For the same compound, the Z-score under setting [6] is reported as -0.7133. In the case of `C[N+](C)(C)CCO.[Br-]` [Choline bromide], the “Raw Signal” value is given as 58990 and the Z-score is given as 0.1897. Consider `CC(C)NCC(O)COc1cccc2[nH]ccc12` (stereo not drawn) [Pindolol], for which the “Raw Signal” value under setting [5] was 62809. In addition, the Z-score under setting [7] came out at 1.414. Regarding `CC(=O)OCC1=C(C(=O)O)N2C(=O)[C@@H](NC(=O)CSc3ccncc3)[C@H]2SC1` [Cephapirin sodium], the “Raw Signal” value under setting [5] turned out to be 53491. The compound also displayed a Z-score under setting [6] of -0.7789. Compound `CCCCCN(CCCCC)C(=O)C(CCC(=O)O)NC(=O)c1ccc(Cl)c(Cl)c1` (stereo not drawn) [Lorglumide sodium] showed a Z-score under setting [8] of 0.04041. In the case of `CNC(=O)[C@H]1O[C@@H](n2cnc3c(NCc4cccc(I)c4)nc(Cl)nc32)[C@H](O)[C@@H]1O` [Chloro-IB-MECA], the “Raw Signal” value under setting [5] was found to be 50053. Also, under setting [6], the Z-score is -1.039. In the case of `NC(=O)c1ccc(OCC(O)CN2CC=C(c3ccc(F)cc3)CC2)cc1` (stereo not drawn) [Ro 8-4304], the “Raw Signal” value under setting [5] is on record as 63292. For the same compound, the Z-score under setting [7] came out at 1.412. Regarding `NS(=O)(=O)Cc1noc2ccccc12` [Zonisamide sodium], under setting [3], the “Raw Signal” value is recorded as 56166. The compound also gave a Z-score under setting [8] of 0.02763. Consider `CN1C[C@H](CNC(=O)OCc2ccccc2)C[C@@H]2c3cccc4c3c(cn4C)C[C@H]21` [Metergoline], for which the “Raw Signal” value under setting [5] is listed as 65696. Under setting [7], the Z-score is reported as 1.899. For `O=C(O)/C=C\C(=O)O.c1cnc(N2CCN(Cc3ccc4c(c3)OCO4)CC2)nc1` [Piribedil maleate], the “Raw Signal” value under setting [1] turned out to be 62540. This compound also had a Z-score under setting [2] of 1.266. `Cn1ccc2cc3c(cc21)CCN3C(=O)Nc1cccnc1` [SB 206553 hydrochloride]: the “Raw Signal” value under setting [3] is reported as 56981. The compound further had a Z-score under setting [8] of 0.186. In the case of `Cn1c(=O)c2[nH]c(C3CCCC3)nc2n(C)c1=O` [8-Cyclopentyl-1,3-dimethylxanthine], under setting [1], the “Raw Signal” value was 58283. Moreover, the Z-score under setting [2] is 0.6328.

`O=C1CCc2cc(OCCCCc3nnnn3C3CCCCC3)ccc2N1` [Cilostazol]: under setting [3], the “Raw Signal” value stood at 58165. The Z-score under setting [8] is on record as 0.04437. As for `CC(N/C(=N\C#N)Nc1ccncc1)C(C)(C)C` (stereo not drawn) [Pinacidil], the “Raw Signal” value under setting [3] is listed as 55394. The same compound registered a Z-score under setting [4] of -0.1224. `COc1cc2c(cc1O)CC[C@@H]1[C@@H]2CC[C@]2(C)[C@@H](O)CC[C@@H]12` [2-methoxyestradiol]: the “Raw Signal” value under setting [1] was 58620. The compound also registered a Z-score under setting [2] of 0.7102. For the compound `C#CCN1C(C)=C(C(=O)OC)C(c2cccc([N+](=O)[O-])c2)C(C(=O)OCC)=C1C` (stereo not drawn) [MRS 1845], under setting [3], the “Raw Signal” value is recorded as 54765. This compound also displayed a Z-score under setting [8] of 0.06242. For the compound `O=C1C=CC(=O)C=C1` [p-Benzoquinone], the “Raw Signal” value under setting [5] was 51681. The Z-score under setting [6] is given as -1.098.

As to `CC1CN(S(=O)(=O)c2cccc3cnccc23)CCN1.Cl.Cl` (stereo not drawn), the “Raw Signal” value under setting [3] was 53944. The Z-score under setting [8] is on record as -0.07553.

Consider `COc1ccc(C(=O)NCc2cccnc2)cc1C(=O)NCc1cccnc1` [Picotamide], for which, under setting [3], the “Raw Signal” value came out at 56073. This compound also showed a Z-score under setting [8] of 0.009557. As for `COc1cc(OC)c(C=C2C(O)=Nc3ccccc32)c(OC)c1` [IC 261], the “Raw Signal” value under setting [3] is 54461. The same compound yielded a Z-score under setting [4] of -0.3036. In the case of `CN1CCC(=C2c3ccccc3C=Cc3ccccc32)CC1` [Cyproheptadine hydrochloride], under setting [1], the “Raw Signal” value was 61620. Under setting [2], the Z-score was determined as 0.6529.

Turning to `CN1CCN2c3ccccc3Cc3ccccc3C2C1` (stereo not drawn) [Mianserin hydrochloride], the “Raw Signal” value under setting [5] is 51451. Besides, the Z-score under setting [6] is -0.4944. Consider `CNCCC(Oc1ccccc1OC)c1ccccc1` (stereo not drawn) [Nisoxetine hydrochloride], for which the “Raw Signal” value came out at 55675 and the Z-score was 0.2153. With `NCCS(=O)(=O)O` [Taurine], the “Raw Signal” value under setting [5] came out at 52621. This compound registered a Z-score under setting [6] of -0.6611. As to `Oc1ncnc2[nH]ncc12` [Allopurinol], under setting [3], the “Raw Signal” value came to 56130. The Z-score under setting [4] was -0.3141. Regarding `CC(C)Oc1cccnc1N(C)C1CCN(Cc2ccccc2)CC1.O=C(O)/C=C\C(=O)O` [U-101958 maleate], the “Raw Signal” value under setting [5] is 65094. This compound also yielded a Z-score under setting [7] of 1.762. With `CN(C)c1ccc(O)c2c1C[C@H]1C[C@H]3[C@H](N(C)C)C(O)=C(C(N)=O)C(=O)[C@@]3(O)C(O)=C1C2=O` [Minocycline hydrochloride], under setting [3], the “Raw Signal” value came out at 55658. The compound further yielded a Z-score under setting [8] of 0.2125. In the case of `CC(C)CN(C)c1nc(N)c(C(=O)N=C(N)N)nc1Cl` [5-(N-Methyl-N-isobutyl)amiloride], the “Raw Signal” value under setting [3] is given as 57481. Under setting [8], this compound had a Z-score of -0.0761.

As to `CCCN(CC1CC1)c1nc(C)nc(Nc2c(Cl)cc(Cl)cc2Cl)c1Cl` [NBI 27914], the “Raw Signal” value under setting [5] was determined as 52610. Under setting [6], this compound yielded a Z-score of -0.5193. On to `CCOC(=O)Nc1ccc(NCc2ccc(F)cc2)nc1N` [Flupirtine maleate], for which, under setting [3], the “Raw Signal” value was 54811. This compound had a Z-score under setting [8] of -0.07231. As to `CCCCCCC(C(C)O)n1cnc2c(N)ncnc21.Cl` (stereo not drawn), the “Raw Signal” value under setting [5] is on record as 51235. Further, under setting [6], the Z-score was -0.7986. On the same counts, the results for `NCCCNCCCCNCCCN` [Spermine tetrahydrochloride] are 52988 and -0.5898.

Consider `CC1=C(C(=O)O)N2C(=O)[C@@H](NC(=O)[C@H](N)C3=CCC=CC3)[C@H]2SC1` [Cephradine], for which the “Raw Signal” value under setting [3] is on record as 56353. The same compound yielded a Z-score under setting [4] of -0.2748. On to `Cc1ccccc1N1C(=O)c2cc(S(N)(=O)=O)c(Cl)cc2NC1C` (stereo not drawn) [Metolazone], for which the “Raw Signal” value under setting [3] is reported as 54501. Also, the Z-score under setting [8] amounted to 0.01806. As to `NC(=O)c1cnccn1` [Pyrazinecarboxamide], under setting [1], the “Raw Signal” value was 58526. For the same compound, under setting [2], the Z-score came out at 0.4861. As to `Cl.Clc1ccc(Cn2c(CN3CCCC3)nc3ccccc32)cc1` [Clemizole hydrochloride], the “Raw Signal” value under setting [3] came out at 56495. Under setting [4], this compound displayed a Z-score of -0.2498. In the case of `N=C(N)c1ccc(N)cc1` [4-Aminobenzamidine dihydrochloride], the “Raw Signal” value under setting [5] was 52991. Under setting [6], this compound yielded a Z-score of -0.8669.
